# Paper PMC12040169 (PLOS Biology, 2025)
# Experiment: in vitro
# Details: human, hela cells, % viability
row,Structure (SMILES),"viability at 28.5 h, 10 µM [%]"
1,Cc1cc(C)nc(Nc2ccc(C3CCCN(C(=O)C(C)(C)c4cccc(F)c4)C3)nc2)n1 (stereo not drawn) [CBK286007],85.2
2,CC(=O)Cn1nnnc1C [CBK020588],99.6
3,Cc1cc(NC(=O)c2ccc3c(c2)C(=O)N(CC2CCCO2)C3=O)no1 (stereo not drawn) [CBK072998],90.2
4,CN1CCN(C(=O)c2ccc(-c3cncc(-c4ccc(O)cc4)n3)c(F)c2)CC1 [CBK126752],100
5,Cc1noc(C)c1C(=O)NC1Cc2ccccc2C1 [CBK200350],91.4
6,CC1(C)CC(NCC(O)COc2cc(C(C)(C)C)c(O)c(C(C)(C)C)c2)CC(C)(C)N1 (stereo not drawn) [CBK264564],124
7,O=C(O)c1ccc(C(=O)O)c2c(C(=O)O)cccc12 [CBK261356],82.3
8,COc1cccc(COc2cnc(-c3ccccc3)c(N)n2)c1OC [CBK145066],101
9,Cc1ccc(-n2c(C)c(C)c3c(NCCO)cnnc32)cc1 [CBK288162],101
10,CCN(CC)CCN(Cc1cc2ccc(C)cc2[nH]c1=O)C(=O)Nc1ccc(Cl)cc1 [CBK068680],84.9
11,OCCN1CCN(c2nccnc2-c2ccncc2)CC1 [CBK038084],89.2
12,CCN1C(=O)c2ccccc2C(=O)[C@@]2(C)CN(C(=O)C(C)C)C[C@@H]12 [CBK281680],91.8
13,O=C(O)CC(NCc1ccccc1)C(=O)Nc1ccccc1Br (stereo not drawn) [CBK267118],98
14,O=C(O)/C=C/C(=O)NNC(=O)c1ccccc1Br [CBK261786],111
15,CCc1ccc(CNC(=O)Cn2nnc(-c3ccc(CN4CCC(C)CC4)nc3SC)n2)cc1 [CBK156205T],90.3
16,CCOC(=O)c1c(NC(=O)Cn2cnc([N+](=O)[O-])n2)sc2c1CCC2 [CBK263042],92.5
17,O=C(Nc1ccccc1)c1ccc(-c2ccccc2)cc1 [CBK261346],107
18,O=C(NC(c1ccc2c(c1)CCO2)C1CC(O)C1)c1cccc(=O)[nH]1 (stereo not drawn) [CBK307463],86.2
19,CCN(C(=O)c1n[nH]c2c1CCC2)C1CCN(C)CC1 [CBK281870],102
20,Cn1c(=O)[nH]c(=O)c2c1nc(N1CCN(Cc3ccccc3)CC1)n2CCCc1ccccc1 [CBK269529],104
21,Cc1nnc(SCC(=O)Nc2nonc2C)s1 [CBK269227],98.9
22,COc1cc(C(c2c[nH]c3ccccc23)c2c[nH]c3ccccc23)ccc1OCC(=O)O [CBK265717],97.8
23,CC(C)Cn1c(=O)[nH]c2ncc(-c3ccc(O)cc3)nc21 [CBK065011],105

row,Structure (SMILES),"viability at 28.5 h, 10 µM [%]"
1,CCn1c(SCC(=O)NC(=O)NC2CCCCC2)nc2ccccc21 [CBK306037],93.6
2,O=C(NCc1n[nH]c(=S)n1-c1cccc(C(F)(F)F)c1)c1cccs1 [CBK067697],91.2
3,Cc1nc(C2CCN(C(=O)c3cscn3)CC2)c2sccn12 [CBK285240],107
4,CC(C)(O)C#Cc1ccc(C(=O)N2CCC(C(N)=O)(N3CCCCC3)CC2)cc1 [CBK264065],97.3
5,CCn1cc(S(=O)(=O)N2CCCC3(CCCCC3)C2)c(C)n1 [CBK282756],83.9
6,O=C(O)c1ccc(S(=O)(=O)NCc2ccc3c(c2)OCO3)cc1 [CBK262360],97
7,CC1CCN(C(=S)Nc2ccccc2)CC(C)(C)C1 (stereo not drawn) [CBK006185],93.9
8,Oc1cccc(OCCOc2nccnc2N2CCCC2)c1 [CBK115756],85.5
9,O=C(COc1ccccc1)N1CCC(c2cccc(Cc3ccccc3F)n2)CC1 [CBK286211],104
10,Nc1ccc(Oc2ccc(-n3c(=O)c4cc5c(=O)n(-c6ccc(Oc7ccc(N)cc7)cc6)c(=O)c5cc4c3=O)cc2)cc1 [CBK261489],104
11,O=C(Cn1c(-c2cccs2)cc2cccnc21)N1CCCC1 [CBK282453],83
12,CCn1cc(-c2cncn2CCOc2ccc(C)cc2)cn1 [CBK281623],88.5
13,CCNC(=O)/N=C(/N)Nc1nc2ccccc2s1 [CBK028890],72.1
14,O=C(O)c1cc(-c2ccc(OC(F)F)cc2)[nH]n1 [CBK288022],87.1
15,Cc1ccc(C(=O)Nc2cccc(-c3ccc4nnc(C)n4n3)c2)cc1 [CBK287683],82.8
16,O=S(=O)(Nc1nnc(C(F)(F)F)s1)c1csc2ccccc12 [CBK062009],95.9
17,COc1cccc(NC(=O)CC(CN2CCC(O)CC2)C(=O)O)c1 (stereo not drawn) [CBK286842],93
18,O=[N+]([O-])c1cccnc1Sc1ccccc1C1=NCCCN1 [CBK115579C],96.2
19,COc1ccc(CN2CCN(C(=O)c3ccccc3F)CC2)cc1OCc1ccccc1 [CBK263479],80.7
20,Cc1cnc(CNC(=O)N2CCN(c3ccccc3)CC2)cn1 [CBK155174],101
21,CN(C)CCN(Cc1ccccn1)c1ncccn1 [CBK020142],116
22,O=C(CSCc1c(F)cccc1Cl)NCc1ccncc1 [CBK268381],87.1
23,CN1CC(c2ccccc2)C2(CCNCC2)C1 (stereo not drawn) [CBK282225],105

row,Structure (SMILES),"viability at 28.5 h, 10 µM [%]"
1,CCCn1cc(CN2CCC(O)(c3ccc(C)cc3)CC2)cn1 [CBK282737],103
2,Cc1cc2ncn(CC(=O)NCc3ccccc3)c2cc1C [CBK200213],104
3,COc1ccc(CCNc2nc(-c3ccccn3)cs2)cc1OC [CBK267260],100
4,O=C(O)CCNS(=O)(=O)c1ccc(I)cc1 [CBK268968],111
5,O=C(O)CNC(=O)CCS(=O)(=O)c1ccc(F)cc1 [CBK286580],86.1
6,Cc1ccc(NC(=O)NC(=O)C2CCN(CCCc3ccc(F)cc3)CC2)cc1Cl [CBK035057],94.2
7,Cc1cccc(-c2ncc(NC(=O)CCc3cccc(Cl)c3)nc2-c2cccnc2)c1 [CBK037201],97.2
8,CN1CCN(C(=O)CN(c2ccccc2)S(=O)(=O)N(C)C)CC1 [CBK268079],86.6
9,O=C(O)C1CSC(c2cccc(Cl)c2Cl)N1 (stereo not drawn) [CBK077526],106
10,CN(C(=O)C1CCN(C(=O)c2ccoc2)CC1)C(c1ccc(F)cc1)c1ccccn1 (stereo not drawn) [CBK060206],91.5
11,COc1ccc2c(c1)c(C(=O)N1CCC3(CCNCC3)CC1)c(C)n2C [CBK306562],72.9
12,O=C(CC[C@@H]1CNC(=O)[C@@H]2C[C@H](NC(=O)c3ccco3)CN12)Nc1ccccc1 [CBK289007],91.1
13,CC12CCC(C(=O)O)(c3nc4cc([N+](=O)[O-])ccc4nc31)C2(C)C (stereo not drawn) [CBK266577K],95.6
14,C=CCn1c(=O)c(C(=O)NCCCO)c(O)c2ccccc21 [CBK262481],83.9
15,COc1ccc(CCNC(=O)N2CCN(C3CCN(C)CC3)CC2)cc1OC [CBK155897],94.3
16,O=C(Nc1cccc(F)c1)N(Cc1cccnc1)CC1CCCO1 (stereo not drawn) [CBK304065],109
17,CCCCSc1nc(N)cc(N2CCC(N3CCOC3=O)CC2)n1 [CBK306974],82.1
18,O=c1[nH]c2ncc(-c3ccsc3)nc2n1-c1ccc2[nH]ccc2c1 [CBK064650],108
19,OC(CN1CCOCC1)Cn1c(-c2ccccc2)c(-c2ccccc2)c2ccc3ccccc3c21 (stereo not drawn) [CBK263996G],94.7
20,Cc1cc(C)nc(Nc2nc3ccccc3[nH]2)n1 [CBK263539],102
21,CC(C)(C)OC(=O)Nc1ccc2c(ccn2CCN2CCOCC2)c1 [CBK161767],95
22,COc1ccc(OC)c(NC(=O)CSc2nnc(-c3ccco3)o2)c1 [CBK267429],98.3
23,O=c1[nH]c(CN2CCN(c3ncccn3)CC2)nc2ccccc12 [CBK269918],98.3

row,Structure (SMILES),"viability at 28.5 h, 10 µM [%]"
1,CC(=O)Cc1c(C(=O)O)c(C)nn1-c1ccccc1 [CBK286779],104
2,O=c1sc(Nc2ccccc2)nc2ccsc12 [CBK287853],91.9
3,Cc1nc(C2CCCN(C(=O)C3CCC3)C2)nc2c1CCCN2Cc1ccccc1 (stereo not drawn) [CBK286257],78.2
4,COc1ccc(C(=O)c2ccc(N3CCN(C4CC(=O)NC4=O)CC3)cc2)cc1F (stereo not drawn) [CBK268909],94.2
5,O=C(CSc1nnc(-c2ccccc2O)n1-c1ccccc1)N1CCc2ccccc21 [CBK268097],100
6,COCc1cc(C[C@@H]2C[C@H](NC(=O)C(C)(C)C)C2(C)C)no1 [CBK289251],81.3
7,N#Cc1ccccc1CSc1nc2ccc([N+](=O)[O-])cc2[nH]1 [CBK269589],84.5
8,Cc1ccc(Cc2c(C)[nH]c3[nH]n(-c4ccccc4)c(=O)c3c2=O)cc1 [CBK270273],83.7
9,O=C(NCCN1CCOCC1)c1ccc2nccnc2c1 [CBK268806],108
10,Cc1ccc(-c2c(C(=O)NNC(=S)NCc3ccco3)csc2C)cc1 [CBK266992],96.3
11,CCOc1cccc(C(=O)NN2CCN(C)CC2)c1 [CBK268184],97.7
12,COc1cccc(CN(Cc2ccco2)Cc2cnc(C)n2C)c1 [CBK282494],93.6
13,O=C(NC(=O)C1CCN(CC2COc3ccccc3O2)CC1)Nc1ccccc1 (stereo not drawn) [CBK035267],92.4
14,Cc1cc(=O)n2c3ccccc3n(CC(O)CN3CCN(C(c4ccccc4)c4ccccc4)CC3)c2c1C#N (stereo not drawn) [CBK268375],89.8
15,CC(CCN1CCN(C)CC1)c1ccccc1 (stereo not drawn) [CBK261881],88.5
16,Cc1nc(N)nc(NCCC2CCCOC2)c1Cl (stereo not drawn) [CBK307353],97.1
17,COCCN1C(=O)c2ccc(C(=O)Nc3ccc(O)c(C(=O)O)c3)cc2C1=O [CBK268344],102
18,CS(=O)(=O)Nc1ncc(-c2ccco2)cc1C(=O)NCc1ccc(F)cc1 [CBK076479],112
19,CS(=O)(=O)c1ccc(CNC(=O)c2ccccc2-n2cccc2)cc1 [CBK149612],94.2
20,Cc1cc(C)n(CC(=O)NCCCc2ccc(Cl)cc2)c(=O)n1 [CBK281561],96.3
21,O=[N+]([O-])c1cccc(-c2noc(COc3ccc(Br)cc3Cl)n2)c1 [CBK264452],101
